Assay results: EP0333517A2, “Method and agent for inhibiting the binding of human polymorphonuclear leukocytes to endothelium and compositions therefor” (THE ROCKEFELLER UNIVERSITY, priority 1988, dated 1989)
Residues, ends and D or L forms follow the SMILES beside them.

Key:
[1] = tested on: binding of PMN to fibrinogen; experiment: Binding of phorbol dibutyrate-stimulated PMN to fibrinogen-coated surfaces (adherent cells counted by phase contrast microscopy); format: cell-based, human; settings: 2 mg/ml of synthetic peptide; PMN stimulated with 300 ng/ml phorbol dibutyrate; 20 min at 0°C then 30 min at 37°C; Figure 1
Description: This example illustrates that the method of the invention can be used to inhibit binding of stimulated PMN to fibrinogen-coated surfaces. Figure 1 illustrates the level of inhibition of binding by incubation with monoclonal antibodies against CD11b/CD18 and with the peptide L10, and Figure 2 illustrates the dose dependence of this inhibition.
Details of the experiments are as follows. Purified human PMN were stimulated for 15 min. with 300 ng/ml of phorbol dibutyrate. This stimulation is necessary to enable PMN to bind, and mimics the stimulation of PMN at sites of inflammation. Culture wells were coated with fibrinogen or human serum albumin by incubating 1 mg/ml of these proteins with the culture surfaces for 1 hr. at 20°C. The PMN were then washed and added to culture wells coated with fibrinogen in the presence of 10µg/ml of various monoclonal antibodies or 2 mg/ml of synthetic peptides. PMN were allowed to settle onto the surface for 20 min. at 0°C, then were warmed to 37°C for 30 min. The surfaces were then washed and the number of cells adherent were counted by phase contrast microscopy.

[2] = tested on: binding of PMN to endothelial cells; experiment: Binding of phorbol dibutyrate-stimulated PMN to endothelial cells (binding assessed by microscopy); format: cell-based; settings: indicated doses (Figures 3 and 4, not given); human umbilical cord endothelial cells; 37°C for 15 min
Description: This example illustrates that the method of the invention can be used to inhibit the binding of stimulated PMN to human endothelial cells.
The experiments are conducted as follows. Purified human PMN were stimulated for 15 min. with 300 ng/ml of phorbol dibutyrate. This stimulation is necessary to enable PMN to bind, and mimics the stimulation of PMN at sites of inflammation. Endothelial cells were isolated from human umbilical cords by standard methods [Pawlowski et al., Proc. Natl. Aca. Sci., 82, 8202 (1985)] and were cultivated on fibronectin-coated tissue culture surfaces to confluence. […] PMN were washed and combined with the indicated doses of Arg-Leu-Leu-Pro-Gly-Gly-Leu-Gln-Gln-Gly-Arg-Gly- Asp-Ala-Val-Gly-Pro-Glu-Arg-Gly-Cys (Pep63) in Figure 3, or with the indicated doses of Gly-Gln-Gln-His-His-Leu-Gly-Gly-Ala-Lys-Gln-Ala-Gly-Asp-Val (G15) in Figure 4. The cells were then added to the endothelium and incubated at 37°C for 15 min. Unattached PMN were then washed away and the binding was assessed by microscopy.

Row | Structure (SMILES) | binding of PMN to fibrinogen [1] | inhibition of the binding of PMN to endothelial cells [2]
1 | CC(C)C[C@H](N)C(=O)NCC(=O)NCC(=O)N[C@@H](C)C(=O)N[C@@H](CCCCN)C(=O)N[C@@H](CCC(N)=O)C(=O)N[C@@H](C)C(=O)NCC(=O)N[C@@H](CC(=O)O)C(=O)N[C@H](C(=O)O)C(C)C [L10, Leu-Gly-Gly-Ala-Lys-Gln-Ala-Gly-Asp-Val] (H-LGGAKQAGDV-OH) | strongly inhibits binding | –
2 | CC(C)C[C@H](NC(=O)[C@H](Cc1c[nH]cn1)NC(=O)[C@H](Cc1c[nH]cn1)NC(=O)[C@H](CCC(N)=O)NC(=O)[C@H](CCC(N)=O)NC(=O)CN)C(=O)NCC(=O)NCC(=O)N[C@@H](C)C(=O)N[C@@H](CCCCN)C(=O)N[C@@H](CCC(N)=O)C(=O)N[C@@H](C)C(=O)NCC(=O)N[C@@H](CC(=O)O)C(=O)N[C@H](C(=O)O)C(C)C [G15, Gly-Gln-Gln-His-His-Leu-Gly-Gly-Ala-Lys-Gln-Ala-Gly-Asp-Val] (H-GQQHHLGGAKQAGDV-OH) | – | dose dependence of inhibition
3 | CC(C)C[C@H](NC(=O)CNC(=O)CNC(=O)[C@@H]1CCCN1C(=O)[C@H](CC(C)C)NC(=O)[C@H](CC(C)C)NC(=O)[C@@H](N)CCCNC(=N)N)C(=O)N[C@@H](CCC(N)=O)C(=O)N[C@@H](CCC(N)=O)C(=O)NCC(=O)N[C@@H](CCCNC(=N)N)C(=O)NCC(=O)N[C@@H](CC(=O)O)C(=O)N[C@@H](C)C(=O)N[C@H](C(=O)NCC(=O)N1CCC[C@H]1C(=O)N[C@@H](CCC(=O)O)C(=O)N[C@@H](CCCNC(=N)N)C(=O)NCC(=O)N[C@@H](CS)C(=O)O)C(C)C [Pep63] (H-RLLPGGLQQGRGDAVGPERGC-OH) | – | dose dependence of inhibition
